Laboratory results from US12486538B2, “Methods of diagnosing alzheimer's disease and risk of progression to alzheimer's disease” (Loma Linda University Health, priority 2016, dated 2025).
Entries after “also recorded” stand apart in the source; their conditions may differ.

How the values were obtained:
[1] = test system: neuron-differentiated SH-SY5Y cells; assay: LDH release assay in neuron-differentiated SH-SY5Y cells; format: cell-based, human; conditions: for LDH release, dose-response pattern: increasing concentrations
Method: (§1) Rat cortical neurons were dissociated using a papain dissociation kit following manufacturer's instructions (Worthington, NJ; Cat #LK003150). Neurons were cultured in neurobasal medium with B27 supplement with 2 mM glutamine, 50 U/ml penicillin and 50 μg/mL. SH-SY5Y and B103 cells were cultured in DMEM (Sigma Cat #D6429-500M) supplemented with 5% fetal bovine serum. SH-SY5Y cells were differentiated with the addition of 10 μM retinoic acid for 7 days prior to experimentation. LDH assays were conducted with a LDH assay kit following manufacturer's instructions (cat #88954).

B103-EV cells = assay: LDH release assay in B103 cells with empty vector (lack APP); format: cell-based, rat; conditions: absence of APP, 18 hours
Method: as §1, with “experimentation. Transfections were conducted using Lippofectamine LTX (Thermofisher; cat #A12621) according to the manufacturer's instructions.” for “experimentation.”

B103-APP695 cells [2] = assay: LDH release assay in B103 cells stably transfected with APP695; format: cell-based, rat
Method: as §1, with “experimentation. Transfections were conducted using Lippofectamine LTX (Thermofisher; cat #A12621) according to the manufacturer's instructions.” for “experimentation.”

B103-APP695 cells [3] = assay: LIVE/DEAD assay in B103-APP695 cells; format: cell-based, rat; conditions: 50 μM 27OHC, APP-expressing cells
Method: Live dead cell assays were conducted with live dead cell assay kit according to the manufacturer's instructions (Thermofisher #L3224).

[4] = test system: binding of AICD to the MAST4 promoter; assay: ChIP, AICD binding to MAST4 promoter, SH-SY5Y cells; format: cell-based, human; conditions: 5 μM 27OHC
Method: (§2) Chromatin Immunoprecipitation (ChIP) assays were conducted according to standard protocols published by ABcam. Following treatments, cells were incubated with formaldehyde at a final concentration of 0.75% for 10 minutes followed by glycine at a final concentration of 125 mM for an additional 5 minutes. Cells were then washed two times with Phosphate Buffered Saline (PBS) and lysed in FA lysis buffer (50 mM HEPES-KOH PH 7.5, 140 mM NaCl, 1 mM EDTA, 1% Triton X-100, 0.1% Sodium Deoxycholate, 0.1% SDS, protease inhibitors). Resulting cell lysates were sonicated to fragment DNA, spun down, and incubated with antibody conjugated protein A sepharose beads (ThermoFisher cat #101041) overnight with gentile agitation. Following incubation, beads were pelleted, washed three times with FA lysis buffer, and DNA was eluted with elution buffer (1% SDS, 100 mM NaHCO3). Resulting DNA fragments were further purified with a DNA purification kit (Clontech cat #740609.250) prior to qPCR analysis. Antibodies used were anti-APP C-terminus (Sigma #A8717); anti-FOXO1 (Abcam #39670).

[5] = test system: binding of AICD to the MAST4 promoter; assay: ChIP, AICD binding to MAST4 promoter, transfected B103 cells; format: cell-based, rat
Method: as §2

[6] = test system: binding of AICD to the MAST4 promoter; assay: ChIP, AICD binding to MAST4 promoter, rat cortical neurons; format: cell-based; conditions: 5 μM 27OHC
Method: as §1, with “experimentation.” for “experimentation. LDH assays were conducted with a LDH assay kit following manufacturer's instructions (cat #88954).”
as §2, with “Resulting DNA fragments were further purified with a DNA purification kit (Clontech cat #740609.250) prior to qPCR analysis. Antibodies used were anti-APP C-terminus (Sigma #A8717); anti-FOXO1 (Abcam #39670).” left out

MAST4 mRNA [7] = assay: qPCR of MAST4 mRNA, SH-SY5Y cells; format: cell-based, human; conditions: 5 μM 27OHC
Method: (§3) RNA was purified using TRIzol LS reagent according to the manufacturer's instructions (Thermofisher cat #10296010).
(§4) mRNA was purified with TRIzol reagent, converted to cDNA with reverse transcriptase according to the manufacturer's instructions and quantified with iTaq Universal SYBR Green Supermix (Bio-Rad cat #1725120). Results were determined using the delta-delta cycle threshold (ct) method.

MAST4 mRNA [8] = assay: qPCR of MAST4 mRNA, transfected B103 cells; format: cell-based, rat; conditions: B103 APP695, 5 μM 27OHC
Method: as §3, §4

MAST4 mRNA [9] = assay: qPCR of MAST4 mRNA, rat cortical neurons; format: cell-based; conditions: 5 μM 27OHC
Method: as §3, §4

MAST4 protein expression = assay: Immunoblot of MAST4 protein, SH-SY5Y cells; format: cell-based, human; conditions: 5 μM 27OHC
Method: (§5) Immunoblotting was conducted as previously described with the following antibodies: APP (Sigma #A8717; Millipore #22C11); MAST4 (GeneTex #GTX87899); FOXO1 (Cell Signaling Technology #2880); RTKN2 (Proteintech #17458-1-AP); caspase-3 (Cell Signaling Technology #9662); caspase-7 (Cell Signaling Technology #9492); actin (Sigma #A5316) (7).

[10] = test system: FOXO1 phosphorylation by MAST4 kinase; assay: MAST4 in vitro kinase assay on immunoprecipitates from treated cells; format: cell-based, human
Method: Immunoprecipitations were conducted as outlined by ABcam under non-denaturing conditions.
Kinase activity was measured at 37° C. for 30 minutes in 50 μl kinase buffer (50 mM Tris, pH 7.4, 10 mM MgCl2) supplemented with 50 μM ATP and human recombinant FOXO1 (1 μg; Origene #TP300477). Kinase reactions were run on 4-20% Tris-Glycine polyacrylamide gels (Thermofisher) and byproducts identified with anti phospho-Serine/Threonine antibody (Abcam ab17464).

[11] = test system: binding of FOXO1 to the RTKN2 promoter; assay: ChIP, FOXO1 binding to RTKN2 promoter, SH-SY5Y cells; format: cell-based, human; conditions: 5 μM 27OHC
Method: as §2

[12] = test system: binding of FOXO1 to the RTKN2 promoter; assay: ChIP, FOXO1 binding to RTKN2 promoter, transfected B103 cells; format: cell-based, rat; conditions: B103 expressing APP695, 5 μM 27OHC
Method: as §2

[13] = test system: binding of FOXO1 to the RTKN2 promoter; assay: ChIP, FOXO1 binding to RTKN2 promoter, rat cortical neurons; format: cell-based
Method: as §1, with “experimentation.” for “experimentation. LDH assays were conducted with a LDH assay kit following manufacturer's instructions (cat #88954).”
as §2

RTKN2 mRNA [14] = assay: qPCR of RTKN2 mRNA, SH-SY5Y cells; format: cell-based, human; conditions: control siRNA, 5 μM 27OHC
Method: as §3, §4

RTKN2 mRNA [15] = assay: qPCR of RTKN2 mRNA, transfected B103 cells; format: cell-based, rat; conditions: B103 with APP695, 5 μM 27OHC
Method: as §3, §4

RTKN2 mRNA [16] = assay: qPCR of RTKN2 mRNA, rat cortical neurons; format: cell-based
Method: as §3, §4

RTKN2 protein expression = assay: Immunoblot of RTKN2 protein, rat cortical neurons; format: cell-based; conditions: cytoprotective doses, 2.5 and 5 μM 27OHC
Method: as §5

[17] = test system: activated caspase-3, activated caspase-7 and Bax/Bcl2 ratio; assay: Immunoblot of active caspases 3 and 7, Bax, Bcl-2 and RTKN2 in treated cells; format: cell-based
Method: as §5

With `CC(C)C(O)CC[C@@H](C)[C@H]1CC[C@H]2[C@@H]3CC=C4C[C@@H](O)CC[C@]4(C)[C@H]3CC[C@]12C` (stereo partly drawn) [24OHC, 24-hydroxycholesterol] the “LDH release, dose-response pattern” value ([1]; 18 hours) was “had no effect; also recorded: No LDH changes are measurable”.

For `C[C@@H](CO)CCC[C@@H](C)[C@H]1CC[C@H]2[C@@H]3CC=C4C[C@@H](O)CC[C@]4(C)[C@H]3CC[C@]12C` [27OHC, 27-hydroxycholesterol], the “cytotoxicity (LDH)” value ([1]; 15, 25, and 50 μM treatments) was “increasing cytotoxicity”, the “concentration of maximum protective effect (LDH)” value ([1]; 18 hours) was 5 µM and the “LDH release compared to baseline (solvent alone)” value ([1]; concentrations below 10 μM, 18 hours) was “decreased LDH compared to baseline”. The “cytotoxicity (LDH release)” value ([1]; higher concentrations (than 10 μM), 18 hours) was “dose-dependent cytotoxicity”, the “LDH release, dose-response pattern” value ([1]; 18 hours) was “biphasic dose-dependent cellular response” and the “LDH levels, dose-response” value (B103-EV cells) was “increased LDH levels in a dose-dependent manner; also recorded: Cytotoxicity is dose-dependent”. The LDH levels (B103-APP695 cells [2]; 5 μM 27OHC) was “reduced LDH levels”, the “cytotoxicity (LDH)” value (B103-APP695 cells [2]; doses greater than 10 μM) was “dose-dependently cytotoxic” and the “LDH levels, dose-response pattern” value (B103-APP695 cells [2]; presence of APP695, 18 hours) was “biphasic response comparable to that shown by SH-SY5Y cells; also recorded: biphasic pattern”. For the same compound, the dead/live cell abundance (B103-APP695 cells [3]) was “protective”, the “AICD binding to the MAST4 promoter” value [4] was “AICD does bind to the MAST4 promoter” and the “AICD binding to the MAST4 promoter” value ([5]; B103 expressing APPG700A, 5 μM 27OHC) was “an effect not seen in cells expressing APPG700A”. The “AICD binding to the MAST4 promoter” value ([5]; B103 transfected with APP695, 5 μM 27OHC) was “increased AICD binding to the MAST4 promoter”, the “AICD interaction with the MAST4 promoter” value [6] was “AICD also interacts with the MAST4 promoter” and the “MAST4 mRNA levels” value (MAST4 mRNA [7]) was “elevated MAST4 mRNA levels”. For the same compound, the “MAST4 mRNA levels” value (MAST4 mRNA [8]) was “elevated MAST4 mRNA levels”, the “MAST4 mRNA levels” value (MAST4 mRNA [9]) was “also present in rat primary neurons” and the MAST4 protein expression (MAST4 protein expression) was “MAST4 protein expression increased”. For the same compound, the “FOXO1 phosphorylation in MAST4 immunoprecipitates” value ([10]; cells treated with 5 μM 27OHC) was “Increased FOXO1 phosphorylation”, the “FOXO1 phosphorylation in MAST4 immunoprecipitates” value ([10]; cells treated with 50 μM 27OHC) was “No increase in pSer-FOXO1” and the “FOXO1 binding to the RTKN2 promoter” value [11] was “decrease of that binding”. For the same compound, the “FOXO1 binding to the RTKN2 promoter” value [12] was “FOXO1 binding was also decreased”, the “FOXO1 binding to the RTKN2 promoter: decreased at 5 μM but not 50 μM” value ([13]; 5 and 50 μM 27OHC, FIG. 3F) was “confirmed in rat cortical neurons” and the “FOXO1 binding to the RTKN2 promoter” value ([13]; 15, 25, and 50 μM 27OHC) was “increasing”. The “FOXO1 binding to the RTKN2 promoter” value ([13]; cytoprotective doses, 2.5 and 5 μM 27OHC (b174 prints 5 M)) was “decreased binding of FOXO1 to the RTKN2 promoter”, the “RTKN2 mRNA” value (RTKN2 mRNA [14]) was “increased RTKN2 mRNA” and the “RTKN2 mRNA” value (RTKN2 mRNA [15]) was “RTKN2 was upregulated”. For the same compound, the “RTKN2 mRNA: upregulated at 5 μM but not 50 μM” value (RTKN2 mRNA [16]; 5 and 50 μM 27OHC, FIG. 3J) was “confirmed in rat cortical neurons”, the “RTKN2 mRNA” value (RTKN2 mRNA [16]; cytoprotective doses, 2.5 and 5 μM 27OHC) was “increased RTKN2 mRNA” and the RTKN2 protein expression (RTKN2 protein expression) was “increased”. For the same compound, the Bcl-2 ([17]; 5 μM 27OHC) was “robust increase in Bcl-2”, the RTKN2 protein ([17]; 5 μM 27OHC) was “robust increase in Bcl-2 and RTKN2” and the “active forms of caspases 3 and 7” value ([17]; 5 μM 27OHC) was “decrease in active forms of both caspases”. The Bcl-2 ([17]; 50 μM 27OHC) was “decreased Bcl-2” and the “active forms of caspases 3 and 7” value ([17]; 50 μM 27OHC) was “increased the active forms of both caspases”.
